Source: ChEMBL document CHEMBL3407452, “Linear and branched alkyl-esters and amides of gallic acid and other (mono-, di- and tri-) hydroxy benzoyl derivatives as promising anti-HCV inhibitors” (Eur J Med Chem, 2015)
Activity calls are given as the source filed them. The rule behind the calls is not given here.

Test system: Sindbis virus
Assay: Antiviral activity against sindbis virus
Format: functional, organism-based
Conditions: not given

Compound | Activity
CCCCCCCCCCCCOC(=O)c1cc(O)c(O)c(O)c1 [DODECYL GALLATE] | inactive
O=C(OCCCCCCCCCCCCOC(=O)c1cc(O)c(O)c(O)c1)c1cc(O)c(O)c(O)c1 | inactive

Test system: Punta Toro virus
Assay: Antiviral activity against punta toro virus
Format: functional, organism-based
Conditions: not given

Compound | Activity
CCCCCCCCCCCCOC(=O)c1cc(O)c(O)c(O)c1 [DODECYL GALLATE] | inactive
O=C(OCCCCCCCCCCCCOC(=O)c1cc(O)c(O)c(O)c1)c1cc(O)c(O)c(O)c1 | inactive

Test system: not listed separately
Assay: Selectivity index, ratio of CC50 for human Huh5-2 cells to EC50 for HCV genotype 1b
Design: species or system Huh-5-2
Conditions: not given

Compound | Ratio CC50/EC50
CCCCCCCCCCCCOC(=O)c1cc(O)c(O)c(O)c1 [DODECYL GALLATE] | >22
O=C(OCCCCCCCCCCCCOC(=O)c1cc(O)c(O)c(O)c1)c1cc(O)c(O)c(O)c1 | >7

Test system: not listed separately
Assay: Cytotoxicity against human Huh5-2 cells after 72 hrs by MTS assay
Format: cell-based, Huh-5-2
Conditions: not given

Compound | CC50 at 72 h
CCCCCCCCCCCCOC(=O)c1cc(O)c(O)c(O)c1 [DODECYL GALLATE] | 8.9 µM
O=C(OCCCCCCCCCCCCOC(=O)c1cc(O)c(O)c(O)c1)c1cc(O)c(O)c(O)c1 | > 50 µM

Test system: Reovirus sp.
Assay: Antiviral activity against reovirus
Format: functional, organism-based
Conditions: not given

Compound | Activity
CCCCCCCCCCCCOC(=O)c1cc(O)c(O)c(O)c1 [DODECYL GALLATE] | inactive
O=C(OCCCCCCCCCCCCOC(=O)c1cc(O)c(O)c(O)c1)c1cc(O)c(O)c(O)c1 | inactive

Test system: Vesicular stomatitis virus
Assay: Antiviral activity against vesicular stomatitis virus
Format: functional, organism-based
Conditions: not given

Compound | Activity
CCCCCCCCCCCCOC(=O)c1cc(O)c(O)c(O)c1 [DODECYL GALLATE] | inactive
O=C(OCCCCCCCCCCCCOC(=O)c1cc(O)c(O)c(O)c1)c1cc(O)c(O)c(O)c1 | inactive

Test system: Human immunodeficiency virus 2
Assay: Antiviral activity against HIV2 ROD infected in human CEM cells assessed as reduction in virus-induced cytopathicity after 4 to 5 days by microscopy based syncytium cell formation assay
Format: functional, organism-based, ISOLATE ROD, CCRF-CEM
Conditions: Human immunodeficiency virus 2, ISOLATE ROD, CCRF-CEM; read-out: EC50

Compound | EC50
CCCCCCCCCCCCOC(=O)c1cc(O)c(O)c(O)c1 [DODECYL GALLATE] | ≥ 1 µM
O=C(OCCCCCCCCCCCCOC(=O)c1cc(O)c(O)c(O)c1)c1cc(O)c(O)c(O)c1 | > 10 µM

Test system: Influenza A virus H3N2
Assay: Antiviral activity against influenza A virus H3N2
Format: functional, organism-based
Conditions: not given

Compound | Activity
CCCCCCCCCCCCOC(=O)c1cc(O)c(O)c(O)c1 [DODECYL GALLATE] | inactive
O=C(OCCCCCCCCCCCCOC(=O)c1cc(O)c(O)c(O)c1)c1cc(O)c(O)c(O)c1 | inactive

Test system: Human respirovirus 3
Assay: Antiviral activity against human parainfluenza virus 3
Format: functional, organism-based
Conditions: not given

Compound | Activity
CCCCCCCCCCCCOC(=O)c1cc(O)c(O)c(O)c1 [DODECYL GALLATE] | inactive
O=C(OCCCCCCCCCCCCOC(=O)c1cc(O)c(O)c(O)c1)c1cc(O)c(O)c(O)c1 | inactive

Test system: Coxsackievirus B4
Assay: Antiviral activity against human coxsackievirus B4
Format: functional, organism-based
Conditions: not given

Compound | Activity
CCCCCCCCCCCCOC(=O)c1cc(O)c(O)c(O)c1 [DODECYL GALLATE] | inactive
O=C(OCCCCCCCCCCCCOC(=O)c1cc(O)c(O)c(O)c1)c1cc(O)c(O)c(O)c1 | inactive

Test system: not listed separately
Assay: Cytotoxicity against human CEM cells assessed as inhibition of cell proliferation
Format: cell-based
Conditions: CEM cells (CCRF-CEM)

Compound | CC50
CCCCCCCCCCCCOC(=O)c1cc(O)c(O)c(O)c1 [DODECYL GALLATE] | 2.8 µM
O=C(OCCCCCCCCCCCCOC(=O)c1cc(O)c(O)c(O)c1)c1cc(O)c(O)c(O)c1 | 4.7 µM

Test system: Felid alphaherpesvirus 1
Assay: Antiviral activity against feline herpesvirus
Format: functional, organism-based
Conditions: not given

Compound | Activity
CCCCCCCCCCCCOC(=O)c1cc(O)c(O)c(O)c1 [DODECYL GALLATE] | inactive
O=C(OCCCCCCCCCCCCOC(=O)c1cc(O)c(O)c(O)c1)c1cc(O)c(O)c(O)c1 | inactive

Test system: Vaccinia virus
Assay: Antiviral activity against vaccinia virus
Format: functional, organism-based
Conditions: Orthopoxvirus vaccinia

Compound | Activity
CCCCCCCCCCCCOC(=O)c1cc(O)c(O)c(O)c1 [DODECYL GALLATE] | inactive
O=C(OCCCCCCCCCCCCOC(=O)c1cc(O)c(O)c(O)c1)c1cc(O)c(O)c(O)c1 | inactive

Test system: Chikungunya virus
Assay: Antiviral activity against chikungunya virus
Format: functional
Conditions: not given

Compound | Activity
CCCCCCCCCCCCOC(=O)c1cc(O)c(O)c(O)c1 [DODECYL GALLATE] | inactive
O=C(OCCCCCCCCCCCCOC(=O)c1cc(O)c(O)c(O)c1)c1cc(O)c(O)c(O)c1 | inactive

Test system: Influenza A virus
Assay: Antiviral activity against influenza A virus (H1N1)
Format: functional, organism-based
Conditions: not given

Compound | Activity
CCCCCCCCCCCCOC(=O)c1cc(O)c(O)c(O)c1 [DODECYL GALLATE] | inactive
O=C(OCCCCCCCCCCCCOC(=O)c1cc(O)c(O)c(O)c1)c1cc(O)c(O)c(O)c1 | inactive

Test system: Respiratory syncytial virus
Assay: Antiviral activity against RSV
Format: functional, organism-based
Conditions: not given

Compound | Activity
CCCCCCCCCCCCOC(=O)c1cc(O)c(O)c(O)c1 [DODECYL GALLATE] | inactive
O=C(OCCCCCCCCCCCCOC(=O)c1cc(O)c(O)c(O)c1)c1cc(O)c(O)c(O)c1 | inactive

Test system: Hepatitis C virus
Assay: Antiviral activity against HCV genotype 1b I389luc-ubi-neo/NS3-3'/5.1 replicons infected in human Huh5-2 HCV subgenomic replicon-containing cells assessed as reduction in virus replication after 3 days by luciferase reporter gene assay
Format: functional, Hepacivirus hominis
Conditions: Hepatitis C virus, genotype 1b, Huh-5-2, 72 h

Compound | EC90
CCCCCCCCCCCCOC(=O)c1cc(O)c(O)c(O)c1 [DODECYL GALLATE] | 1.8 µM
O=C(OCCCCCCCCCCCCOC(=O)c1cc(O)c(O)c(O)c1)c1cc(O)c(O)c(O)c1 | 37 µM

Same assay, conditions: Hepatitis C virus, genotype 1b, Huh-5-2, 72 h; read-out: EC50

Compound | EC50
CCCCCCCCCCCCOC(=O)c1cc(O)c(O)c(O)c1 [DODECYL GALLATE] | 0.4 µM
O=C(OCCCCCCCCCCCCOC(=O)c1cc(O)c(O)c(O)c1)c1cc(O)c(O)c(O)c1 | 6.5 µM

Test system: Human immunodeficiency virus 1
Assay: Antiviral activity against HIV1 3B infected in human CEM cells assessed as reduction in virus-induced cytopathicity after 4 to 5 days by microscopy based syncytium cell formation assay
Format: functional, organism-based, CCRF-CEM
Conditions: Human immunodeficiency virus 1, 3B, CCRF-CEM; read-out: EC50

Compound | EC50
CCCCCCCCCCCCOC(=O)c1cc(O)c(O)c(O)c1 [DODECYL GALLATE] | ≥ 1 µM
O=C(OCCCCCCCCCCCCOC(=O)c1cc(O)c(O)c(O)c1)c1cc(O)c(O)c(O)c1 | 4.6 µM

Test system: Feline coronavirus
Assay: Antiviral activity against feline coronavirus
Format: functional, organism-based
Conditions: not given

Compound | Activity
CCCCCCCCCCCCOC(=O)c1cc(O)c(O)c(O)c1 [DODECYL GALLATE] | inactive
O=C(OCCCCCCCCCCCCOC(=O)c1cc(O)c(O)c(O)c1)c1cc(O)c(O)c(O)c1 | inactive
